According to patent US8389551B2, “Optical enantiomers of phenyramidol and process for chiral synthesis” (Fermenta Biotech (UK) Limited, priority 2006, dated 2013):
Marks after values point to notes of the source that are not given here.

Key:
Format in all cases: in vivo
rats = assay: Anti-arthritic activity, thickness of joint of right paw after injection of formalin; settings: for Thickness of Joint (in cm) 0 hr: 0 hr (initial); for Thickness of Joint (in cm) 0 hr / Thickness of Joint (in cm) 2 hr: Phen 3 2400 mg, Phen 2 and Phen 4 1200 mg human daily dose extrapolated to rats, Diclofenac sodium 2 mg/Kg; for Thickness of Joint (in cm) 2 hr: 2 hr after formalin; for Thickness of Joint (in cm) 4 hr: 4 hr after formalin; for Thickness of Joint (in cm) 4 hr / Thickness of Joint (in cm) 8 hr / Thickness of Joint (in cm) 24 hr / Thickness of Joint (in cm) 48 hr / Thickness of Joint (in cm) 72 hr: doses as E38; for Thickness of Joint (in cm) 8 hr: 8 hr after formalin; for Thickness of Joint (in cm) 24 hr: 24 hr after formalin; for Thickness of Joint (in cm) 48 hr: 48 hr after formalin; for Thickness of Joint (in cm) 72 hr: 72 hr after formalin; for difference from normal control in thickness of the joint: at 2 hr, One Way ANOVA followed by Dunnett's Test; for Anti-arthritic activity (conclusion): formalin model, FIG. 18
Description: The anti-arthritic activity was assessed using following time points after the injection of formalin 2 hrs, 4 hrs, 8 hrs, 24 hrs, 48 hrs and 72 hrs. The control group (group 1) received 1% gum acacia. The Groups 2, 3, and 4 received the formulations viz: Phen 2, Phen 3 and Phen 4 respectively. Diclofenac was used as positive control and given to group 5. Human daily dose of 2400 mg (800 mg×3 times) was extrapolated to rats for 5 (racemate) Phen 3 and human daily dose of 1200 mg (400 mg×3 times) was extrapolated to rats for (isomer 1) Phen 2 and (isomer 2) Phen 4. Diclofenac sodium 2 mg/Kg was used as reference product.
Initial or 0 hr thickness of the joint of right paw of each animal was recorded. The thickness of the joint was measured using Vernier calipers at different time intervals after the injection of formalin. These efficacy variables were assessed at six time points 2 hrs, 4 hrs, 8 hrs, 24 hrs, 48 hrs and 72 hrs for each and every animal.

swiss albino mice [1] = assay: Analgesic activity, acetic acid induced writhing method
Description: The objective of the study was to evaluate the analgesic activity of the tested formulations of the compounds of the present invention. The test was conducted in Swiss albino mice using acetic acid induced writhing method. A total of 78 pre-screened mice (showing writhing response within 10 minutes*) were divided into 6 groups of 13 animals (6 males+7 females) each. The animals showing no writhing response within 10 mins were excluded. Diclofenac and pentazocine were used as positive controls. The formulations were given orally to the different groups of animals and the number of writhes counted for a period of 15 minutes, after the onset of writhes. If the onset of writhes occurred 30 after 10 minutes the number of writhes was recorded as V. The time of onset of writhes was recorded for each animal.
The control group received 1% gum acacia. The Groups 2, 3, and 4 received the formulations viz: Phen 2; Phen 3 and Phen 4 respectively. Diclofenac and pentazocine were used as positive control and given to groups 5 and 6 respectively. Diclofenac, a potent analgesic & anti-inflammatory agent; and 5 pentazocine an opoid analgesic were selected for comparative evaluation of test formulations. Both these drugs were administered to different groups of animals at the dose of 2 mg/kg. The group 1 (Phen 1) served as—Ve Control group in the study. Phen 5 (Diclofenac—2 mg/kg) and Positive Control: Phen 6 (Pentazocine 2 mg/kg) served as positive controls.
Human daily dose of 2400 mg (800 mg×3 times) was extrapolated to mice for Phen3 and human daily dose of 1200 mg (400 mg×3 times) was extrapolated to mice for Phen2 and Phen 4. The numbers of writhes observed are given below in Table 4 for each formulation.
Further, the evaluation of analgesic activity was carried out using variable dosage forms with different groups. A total of 100 animals (50 males+50 females) were selected randomly and distributed into ten main groups with 10 animals per group (5 M+5 F). Human daily dose of 2400 mg (800 mg×3 times) was extrapolated to mice for Phen 3 (Phenyramidol Racemic (Hydrochloride) and human daily dose of 1200 mg (400 mg×3 times), 1800 mg (400 mg×4.5 times), 2000 mg (400 mg×5 times) & 2400 mg (400 mg×6 times) was extrapolated to mice for Phen2 and Phen4 groups.
The control group 1 received 1% gum acacia and served as negative control group. Groups 2, 3, 4 & 5 received the formulation Phen2. Groups 6, 7, 8 & 9 received the formulation Phen 4 (Isomer 2) & Group 10 received the formulation Phen 3 (Racemic).
Further, one more experiment was done with phenyramidol hydrochloride to evaluate the analgesic activity at lesser dosage levels using acetic acid induced method. A total of 50 animals (25 males+25 females) were selected and randomly distributed into five main groups with 10 animals per group (5 M+5 F). 5 Human daily dose of 600 mg (400×1.5 times) & 1200 mg (800 mg×1.5 times) was extrapolated to mice for Phen 3 (Racemic) and human daily dose of 600 mg (400 mg×1.5 times) was extrapolated to mice for (−) Phenyramidol Hydrochloride & (+) Phenyramidol Hydrochloride and the results are discussed in Table 6.

Wistar rats = assay: Anti-inflammatory activity, carrageenin induced paw edema (plethysmometer); settings: for % Increase in Paw volume 1 HR: 1 HR after carrageenan, oral, racemate 2400 mg, isomers 1200 mg human daily dose extrapolated to rats, Indomethacin 15 mg/kg, diclofenac 10 mg/kg; for % Increase in Paw volume 2 HR: 2 HR after carrageenan; for % Increase in Paw volume 2 HR / % Increase in Paw volume 3 HR / % Increase in Paw volume 5 HR: doses as E46; for % Increase in Paw volume 3 HR: 3 HR after carrageenan; for % Increase in Paw volume 5 HR: 5 HR after carrageenan
Description: Further, the investigations were carried out to determine the anti-inflammatory activities of the molecule of the present invention. Wistar rats weighing between 160-210 gm were divided into 6 groups of 10 animals each. Group I served as control (Placebo) and receive CMC and Group II & III received anti-inflammatory control (positive control) (Diclofenac & Indomethacin respectively). Group IV to VI were treated orally with test formulations. After 15 min. of drug administration, inflammation was induced by injecting 0.1 ml of freshly prepared 1% carrageenin (in normal saline) into the left hind paw of the rat. The paw volume of the […] was measured by measuring the displace fluid in other hand of plethysmometer.
Indomethacin (15 mg/kg and declofenac (10 mg/kg) was used as reference product. Percent increased in rat paw edema was measured and compare to normal control at each time intervals.
The antiinflammatory activity was assessed plethysmographically using following time points after the administration of carrageenan, 1 hr, 2 hrs, 3 hrs and 5 hrs.

mice = assay: Central analgesic activity, tail flick analgesiometer
swiss albino mice [2] = assay: Skeletal muscle relaxant activity, Rota rod apparatus, first experiment (oxalate salts, dose groups); settings: at the doses mentioned
Description: The evaluation of skeletal muscle relaxant activity of the formulations containing phenyramidol racemic, dextro and laevo isomers of oxalate salts in swiss albino mice were carried out using Rota rod apparatus. Each animal was trained only once per day for 5 days. […] Mouse was placed on rota rod only when it achieved the speed of 25 rpm. The ‘fall off time’ in seconds was noted down when the mouse falls from rotating rod. Endurance time was measured up to 120 seconds. The skeletal muscle relaxant activity was assessed using 0 hr, 1 hr, 2 hrs, 4 hrs and 6 hrs time points after the dose administration. A total of 100 mice were selected and randomly distributed into ten main groups with 10 animals per group.
Control group receiving only vehicle served as a placebo in the study.
The test formulations were administered by oral route through gavage tube.(p.o.).
Two efficacy variables were assessed during the experiment: 1. Percent animal falling from the rod was noted; 2. Endurance Time (ET): The time taken for a mouse to fall from the rod was taken as endurance time. […] These efficacy variables were assessed at five time points 0 hr, 1 hr, 2 hr, 4 hr, and 6 hr for each and every animal.

[3] = Table 4, oral, writhes counted 15 minutes, Phen3 human daily dose 2400 mg, Phen2 and Phen 4 1200 mg extrapolated to mice, Diclofenac and Pentazocine 2 mg/kg
[4] = Table 5, dose 1200 mg (human daily dose extrapolated to mice), mean ± SD, n = 10
[5] = Table 5, dose 1800 mg (human daily dose extrapolated to mice), mean ± SD, n = 10
[6] = Table 5, dose 2000 mg (human daily dose extrapolated to mice), mean ± SD, n = 10
[7] = Table 5, dose 2400 mg (human daily dose extrapolated to mice), mean ± SD, n = 10
[8] = experiment of Table 5 (variable doses)

What does the source list for `O=C(O)Cc1ccccc1Nc1c(Cl)cccc1Cl` [Diclofenac, reference compound]?
Thickness of Joint (in cm) 0 hr (rats): 0.49 ± 0.04 cm; Thickness of Joint (in cm) 2 hr (rats): 0.56 ± 0.04 cm; Thickness of Joint (in cm) 4 hr (rats): 0.56 ± 0.04 cm; Thickness of Joint (in cm) 8 hr (rats): 0.62 ± 0.03 cm; Thickness of Joint (in cm) 24 hr (rats): 0.54 ± 0.05 cm; Thickness of Joint (in cm) 48 hr (rats): 0.53 ± 0.05 cm; Thickness of Joint (in cm) 72 hr (rats): 0.51 ± 0.03 cm; difference from normal control in thickness of the joint (rats): significant decrease in the thickness of the joint; Average no. of writhes (swiss albino mice [1]; [3]): 4.08 ± 6.32*; % Increase in Paw volume 1 HR (Wistar rats): 15.77 ± 13.94%; % Increase in Paw volume 2 HR (Wistar rats): 33.39 ± 7.35 %; % Increase in Paw volume 3 HR (Wistar rats): 43.03 ± 15.41 %; % Increase in Paw volume 5 HR (Wistar rats): 30.44 ± 9.52%; Tail Flick Reaction Time (Sec.) 1 hr. (mice; 1 hr. after dose, human daily dose 2400 mg or 1200 mg extrapolated to mice, cut-off 10-12 seconds): 3.41 ± 1.421 s; Tail Flick Reaction Time (Sec.) 4 hr. (mice; 4 hr. after dose, human daily dose 2400 mg or 1200 mg extrapolated to mice, cut-off 10-12 seconds): 2.48 ± 0.654 s

For `O=C(O)C(=O)O.O[C@H](CNc1ccccn1)c1ccccc1` [Phen 2, (S)-Phenyramidol Oxalate], which “Thickness of Joint (in cm) 0 hr” value (rats) is on record?
Its value is 0.45 ± 0.06 cm.

And the “Thickness of Joint (in cm) 2 hr” value (rats)?
Its value is 0.59 ± 0.03 cm.

What about the “Thickness of Joint (in cm) 4 hr” value (rats) of the same compound?
Its value is 0.56 ± 0.04 cm.

What about the “Thickness of Joint (in cm) 8 hr” value (rats) of the same compound?
Its value is 0.60 ± 0.06 cm.

And the “Thickness of Joint (in cm) 24 hr” value (rats)?
The value was 0.54 ± 0.05 cm.

And the “Thickness of Joint (in cm) 48 hr” value (rats)?
The value was 0.52 ± 0.04 cm.

And the “Thickness of Joint (in cm) 72 hr” value (rats)?
Its value is 0.50 ± 0.03 cm.

What about the “Average no. of writhes” value (swiss albino mice [1]; [3]) of the same compound?
The value was 13.08 ± 9.93*.

What about the “Average no. of writhes” value (swiss albino mice [1]; [4]) of the same compound?
Its value is 11.90 ± 8.43*.

And the “Average no. of writhes” value (swiss albino mice [1]; [5])?
Its value is 8.80 ± 6.78*.

And the “Average no. of writhes” value (swiss albino mice [1]; [6])?
The value was 8.20 ± 7.30*.

And the “Average no. of writhes” value (swiss albino mice [1]; [7])?
The value was 6.00 ± 5.66*.

And the “analgesic activity by decrease in the number of writhes induced by acetic acid” value (swiss albino mice [1]; experiment of Table 4)?
The value was “significant analgesic activity”.

What about the “analgesic activity by decrease in the number of writhes induced by acetic acid” value (swiss albino mice [1]; [8]) of the same compound?
Its value is “significant analgesic activity”.

What about the “% Increase in Paw volume 1 HR” value (Wistar rats) of the same compound?
Its value is 25.82 ± 11.67%.

What about the “% Increase in Paw volume 2 HR” value (Wistar rats) of the same compound?
The value was 40.57 ± 10.07%.

What about the “% Increase in Paw volume 3 HR” value (Wistar rats) of the same compound?
The value was 66.59 ± 20.88%.

And the “% Increase in Paw volume 5 HR” value (Wistar rats)?
The value was 48.71 ± 15.16%.

What about the “skeletal muscle relaxant activity (conclusion)” value (swiss albino mice [2]) of the same compound?
The value was “exhibit skeletal muscle relaxant activity”.

And the “Tail Flick Reaction Time (Sec.) 1 hr.” value (mice; mouse, in vivo)?
Its value is 4.31 ± 1.754 s.

And the “Tail Flick Reaction Time (Sec.) 4 hr.” value (mice; mouse, in vivo)?
The value was 2.46 ± 0.591 s.

What does the source list for `O=C(O)C(=O)O.O[C@@H](CNc1ccccn1)c1ccccc1` [Phen 4, (R)-Phenyramidol Oxalate]?
Thickness of Joint (in cm) 0 hr (rats): 0.49 ± 0.04 cm; Thickness of Joint (in cm) 2 hr (rats): 0.56 ± 0.05 cm; Thickness of Joint (in cm) 4 hr (rats): 0.56 ± 0.05 cm; Thickness of Joint (in cm) 8 hr (rats): 0.62 ± 0.03 cm; Thickness of Joint (in cm) 24 hr (rats): 0.55 ± 0.05 cm; Thickness of Joint (in cm) 48 hr (rats): 0.53 ± 0.04 cm; Thickness of Joint (in cm) 72 hr (rats): 0.51 ± 0.03 cm; difference from normal control in thickness of the joint (rats): significant difference (p<0.05); Anti-arthritic activity (conclusion) (rats): exhibits Anti-arthritic activity; Anti-arthritic activity (conclusion) (rats; listed as Phen4): significant anti-arthritic activity; Average no. of writhes (swiss albino mice [1]; [3]): 12.08 ± 4.21*; Average no. of writhes (swiss albino mice [1]; [4]): 10.50 ± 6.65*; Average no. of writhes (swiss albino mice [1]; [5]): 6.20 ± 5.39*; Average no. of writhes (swiss albino mice [1]; [6]): 6.00 ± 6.41*; Average no. of writhes (swiss albino mice [1]; [7]): 4.50 ± 5.19*; analgesic activity by decrease in the number of writhes induced by acetic acid (swiss albino mice [1]; experiment of Table 4): significant analgesic activity; analgesic activity by decrease in the number of writhes induced by acetic acid (swiss albino mice [1]; [8]): significant analgesic activity; % Increase in Paw volume 1 HR (Wistar rats): 25.37 ± 10.44%; % Increase in Paw volume 2 HR (Wistar rats): 39.90 ± 6.12%; % Increase in Paw volume 3 HR (Wistar rats): 68.36 ± 22.20%; % Increase in Paw volume 5 HR (Wistar rats): 49.65 ± 19.03%; Tail Flick Reaction Time (Sec.) 1 hr. (mice; mouse, in vivo): 2.87 ± 1.071 s; Tail Flick Reaction Time (Sec.) 4 hr. (mice; mouse, in vivo): 3.18 ± 1.540 s
